Reference: patent US6720480B2, “Maize proteinase inhibitor-like polynucleotides and defense-activated promoter, transformed plants, and methods of use” (Pioneer Hi-Bred International, Inc., priority 2000, dated 2004)
Several values for one entry are separate records, joined by “and”; a condition that tells them apart may be missing. Identical values can stand only once.

How the values were obtained:
[1] = tested on: nucleotide sequences operably linked to the proteinase inhibitor-like promoter; conditions: HC-toxin 1 μg/ml; Northern analysis, average of 3 repeated experiments
[2] = tested on: zmBBI1::GUS (proteinase inhibitor-like promoter); assay: Co-bombardment of maize immature embryos with zmBBI1::GUS, GUS fluorometric assay after chemical treatment; format: cell-based; conditions: for normalized promoter activity (GUS/Luci), Table 2b: Lucif adj for SA (/0.38); for normalized promoter activity (GUS/Luci), Table 2a: luciferase of sample with no chemicals; for GUS/Luci: Lucif adj for SA and JA (Luci for none); for GUS/Luci / GUS pmol MU/min/ml extract (ave) / GUS pmol MU/min/ml extract (ave), less backg 45.6: Rep 1 and 2; for GUS pmol MU/min/ml extract (ave) / GUS pmol MU/min/ml extract (ave), less backg 45.6: SA 1 mM, JA 0.1 mM; for GUS pmol MU/min/ml extract (ave): 20 h; for GUS pmol MU/min/ml extract (ave), less backg 45.6: second GUS column without own head
Procedure: The activity of the promoter was also studied in the presence of the putative defense activator, zmNPR1. Specifically, maize immature embryos (IE) were co-bombarded with the zmBBI1::GUS construct along with Act::luciferease as an internal standard and either a carrier DNA or an putative defense activators, zmNPR1 (U.S. patent application Ser. No. 09/551,778, filed Apr. 18, 2000, herein incorporated by reference). Particle preparation and DNA coating were carried out as described by Zhang et al.((2000) Plant Cell Reports 19:241-250) except for use of tungsten (1.0 μm) particles and different amounts of DNA: 50 μl zmBBI1::GUS at 0.02 μg/μl, Act::luciferase at 0.1 μg/μl, and 5 μl of the carrier or activator DNA at 1.0 μg/μl. The amount of DNA delivered for each bombardment were 0.33, 0.17, and 1.67 μg for zmBBI1::GUS, Act::luciferase, and the carrier or activator, respectively. The DNA concentration for zmBBI1::GUS was chosen in previous experiments for low background expression. A total of 45 IEs were used for each bombardment. IEs were placed on the osmotic medium (Vain et al. (1993) Plant Cell Reports 12:84-88) for 4 h before bombardment. The distance from the stopping screen to the target was 10 cm and bombardment was done at 650 psi with a PDS 1000/He device (Bio-Rad Laboratories).
After the bombardment the IEs were cultured on the same osmotic medium for 20-24 hr. Subsequently, the 45 IEs were randomly divided into three groups, 15 IEs for each. They were, then, transferred to three new petri dishes (60×25 mm) for chemical treatments. A piece of filter paper had been placed in each petri dish and wetted with 1.25 ml of 560Y liquid medium containing no chemical, 1 mM SA and 0.1 mM JA, respectively. The IEs were cultured again for another 20 h.
Three IEs from each group were then histochemically stained in X-Gluc staining solution (McCabe et al. (1988) Bio/Technology 6:923-926) for overnight at 37° C. The rest of the IEs were subjected to GUS fluorometric and luciferase assays. Fluorometric measurements of GUS activity were performed by using 50 μl protein extract prepared from the 12 IEs of each treatment and quantified in Fluoroskan Ascent FL (Labsystem) for two time points, 10 and 30 min. Luciferase activity was quantified in a Monolight 2010 (Analytical Luminescence Lab) by mixing 20 μl of protein extract with 100 μl of reaction buffer (Dual-Luciferase Reporter Assay System, Promega) and taking the measurements after 10 s. […]

| Structure (SMILES) | increase in expression level of the reporter sequence linked to the promoter [1] [fold] | normalized promoter activity (GUS/Luci), Table 2b ([2]; Rep 1, NPR1+) | normalized promoter activity (GUS/Luci), Table 2a ([2]; Rep 1, NPR1+) | normalized promoter activity (GUS/Luci), Table 2b ([2]; Rep 1, NPR1−) | normalized promoter activity (GUS/Luci), Table 2a ([2]; Rep 1, NPR1−) | normalized promoter activity (GUS/Luci), Table 2b ([2]; Rep 2, NPR1+) | normalized promoter activity (GUS/Luci), Table 2a ([2]; Rep 2, NPR1+) | normalized promoter activity (GUS/Luci), Table 2b ([2]; Rep 2, NPR1−) | normalized promoter activity (GUS/Luci), Table 2a ([2]; Rep 2, NPR1−) | GUS/Luci ([2]; zmNPR1 N) | GUS pmol MU/min/ml extract (ave) ([2]; zmNPR1 N) | GUS pmol MU/min/ml extract (ave), less backg 45.6 ([2]; zmNPR1 N) | GUS/Luci ([2]; zmNPR1 Y) | GUS pmol MU/min/ml extract (ave) ([2]; zmNPR1 Y) | GUS pmol MU/min/ml extract (ave), less backg 45.6 ([2]; zmNPR1 Y) | expression of sequence operably linked to the proteinase inhibitor-like promoter (in words) ([2]; maize immature embryos co-bombarded with zmBBI1::GUS) |
| --- | --- | --- | --- | --- | --- | --- | --- | --- | --- | --- | --- | --- | --- | --- | --- | --- |
| C[C@@H]1NC(=O)[C@H]2CCCN2C(=O)[C@H](CCCCCC(=O)[C@@H]2CO2)NC(=O)[C@@H](C)NC1=O [HC-toxin] | 2 |  |  |  |  |  |  |  |  |  |  |  |  |  |  |  |
| CC/C=C\C[C@H]1C(=O)CC[C@@H]1CC(=O)O [JA, jasmonic acid] |  | 3.39 | 3.19 | 8.73 | 6.5 | 3.54 | 3.19 | 11.42 | 11.74 | 11.74 and 6.50 | 62.22 pmol MU/min/ml extract and 58.61 pmol MU/min/ml extract | 16.62 pmol MU/min/ml extract and 13.01 pmol MU/min/ml extract | 3.19 | 55.25 pmol MU/min/ml extract and 54.57 pmol MU/min/ml extract | 9.65 pmol MU/min/ml extract and 8.97 pmol MU/min/ml extract |  |
| O=C(O)c1ccccc1O [SA, salicylic acid] |  | 13.95 | 20.12 | 34.87 | 38.35 | 14.91 | 19.22 | 31.15 | 40.51 | 40.15 and 38.35 | 102.94 pmol MU/min/ml extract and 122.31 pmol MU/min/ml extract | 57.34 pmol MU/min/ml extract and 76.71 pmol MU/min/ml extract | 20.12 and 19.22 | 106.54 pmol MU/min/ml extract and 99.71 pmol MU/min/ml extract | 60.94 pmol MU/min/ml extract and 54.11 pmol MU/min/ml extract | induces expression |
